Measurements taken from PMC4854315, “Discovery of a novel allosteric inhibitor-binding site in ERK5: comparison with the canonical kinase hinge ATP-binding site” (Acta Crystallographica. Section D, Structural Biology, 2016).

Columns and labels:
Assay in all cases: Z'-LYTE kinase panel
Format in all cases: biochemical
[1] = molecular target: T1, JAK3 (Homo sapiens, UniProt P52333)
T1 construct: purchased ThermoFisher (SelectScreen, Z'-LYTE)
T1 sequence (P52333 1-1124): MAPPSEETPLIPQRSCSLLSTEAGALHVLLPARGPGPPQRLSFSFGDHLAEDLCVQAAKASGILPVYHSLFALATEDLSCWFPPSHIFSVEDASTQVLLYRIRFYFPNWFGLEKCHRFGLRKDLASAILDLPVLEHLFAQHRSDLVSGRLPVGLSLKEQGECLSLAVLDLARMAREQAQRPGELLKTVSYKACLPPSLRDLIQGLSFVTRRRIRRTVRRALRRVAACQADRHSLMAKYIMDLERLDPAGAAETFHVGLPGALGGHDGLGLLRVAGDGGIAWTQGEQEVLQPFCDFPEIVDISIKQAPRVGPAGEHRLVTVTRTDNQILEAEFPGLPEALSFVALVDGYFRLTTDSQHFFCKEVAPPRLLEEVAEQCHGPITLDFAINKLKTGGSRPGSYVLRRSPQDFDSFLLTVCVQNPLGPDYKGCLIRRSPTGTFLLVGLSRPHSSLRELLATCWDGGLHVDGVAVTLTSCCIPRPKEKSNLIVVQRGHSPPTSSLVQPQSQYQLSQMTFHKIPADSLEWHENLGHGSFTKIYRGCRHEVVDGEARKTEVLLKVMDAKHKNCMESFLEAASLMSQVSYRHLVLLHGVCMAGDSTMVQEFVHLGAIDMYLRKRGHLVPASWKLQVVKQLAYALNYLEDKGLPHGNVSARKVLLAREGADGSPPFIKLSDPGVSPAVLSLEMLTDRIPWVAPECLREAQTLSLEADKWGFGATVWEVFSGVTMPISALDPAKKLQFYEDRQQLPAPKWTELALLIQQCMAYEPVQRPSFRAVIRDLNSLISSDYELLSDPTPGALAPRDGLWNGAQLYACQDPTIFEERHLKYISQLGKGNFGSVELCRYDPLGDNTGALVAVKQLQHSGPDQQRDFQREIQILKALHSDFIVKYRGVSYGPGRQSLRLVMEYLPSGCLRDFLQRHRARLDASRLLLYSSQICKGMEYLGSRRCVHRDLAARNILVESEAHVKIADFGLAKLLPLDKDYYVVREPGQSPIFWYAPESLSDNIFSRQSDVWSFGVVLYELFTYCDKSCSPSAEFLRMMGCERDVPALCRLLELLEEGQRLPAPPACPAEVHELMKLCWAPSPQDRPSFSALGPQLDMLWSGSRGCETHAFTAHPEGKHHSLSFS
Method: (§1) Compounds 2, 3 and 5 were tested for activity against the 225 kinases in the ThermoFisher standard kinase panel. The standard Z′-LYTE assay protocol (ThermoFisher) was used to measure the percentage inhibition at 10 µM compound concentration (details are provided in the supporting information).

[2] = molecular target: T2, PDGFRA (PDGFR alpha) (Homo sapiens, UniProt P16234)
T2 construct: purchased ThermoFisher (SelectScreen, Z'-LYTE)
T2 sequence (P16234 24-1089): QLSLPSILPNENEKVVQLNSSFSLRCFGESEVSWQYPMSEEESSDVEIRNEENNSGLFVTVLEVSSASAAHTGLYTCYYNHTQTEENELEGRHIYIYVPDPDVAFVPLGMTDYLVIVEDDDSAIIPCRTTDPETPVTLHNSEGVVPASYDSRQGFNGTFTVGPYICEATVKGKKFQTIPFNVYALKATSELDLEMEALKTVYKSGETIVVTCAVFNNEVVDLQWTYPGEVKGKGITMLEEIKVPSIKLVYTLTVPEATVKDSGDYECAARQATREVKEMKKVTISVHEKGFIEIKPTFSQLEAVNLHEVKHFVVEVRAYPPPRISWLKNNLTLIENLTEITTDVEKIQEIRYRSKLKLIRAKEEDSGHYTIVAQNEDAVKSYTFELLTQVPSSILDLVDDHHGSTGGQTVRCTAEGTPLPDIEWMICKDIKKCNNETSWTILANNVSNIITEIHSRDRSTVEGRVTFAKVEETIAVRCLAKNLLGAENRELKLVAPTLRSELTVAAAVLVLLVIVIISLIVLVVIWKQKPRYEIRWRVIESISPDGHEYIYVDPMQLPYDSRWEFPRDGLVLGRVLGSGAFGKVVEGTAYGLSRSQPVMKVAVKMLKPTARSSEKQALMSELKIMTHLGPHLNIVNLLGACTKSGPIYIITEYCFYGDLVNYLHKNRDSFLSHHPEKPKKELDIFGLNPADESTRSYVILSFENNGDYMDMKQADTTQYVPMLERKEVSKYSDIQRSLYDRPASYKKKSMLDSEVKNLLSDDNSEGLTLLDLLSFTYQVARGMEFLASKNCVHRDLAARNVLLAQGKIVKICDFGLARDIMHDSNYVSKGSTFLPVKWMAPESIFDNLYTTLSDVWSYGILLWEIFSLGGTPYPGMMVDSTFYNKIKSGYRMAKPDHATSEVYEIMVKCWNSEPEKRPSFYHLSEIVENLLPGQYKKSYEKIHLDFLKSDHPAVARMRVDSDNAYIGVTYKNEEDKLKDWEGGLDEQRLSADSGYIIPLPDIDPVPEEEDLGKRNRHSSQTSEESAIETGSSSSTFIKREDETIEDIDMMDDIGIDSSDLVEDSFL
Method: as §1

[3] = molecular target: T3, NEK1 (Homo sapiens, UniProt Q96PY6)
T3 construct: purchased ThermoFisher (SelectScreen, Z'-LYTE)
T3 sequence (Q96PY6 1-1258): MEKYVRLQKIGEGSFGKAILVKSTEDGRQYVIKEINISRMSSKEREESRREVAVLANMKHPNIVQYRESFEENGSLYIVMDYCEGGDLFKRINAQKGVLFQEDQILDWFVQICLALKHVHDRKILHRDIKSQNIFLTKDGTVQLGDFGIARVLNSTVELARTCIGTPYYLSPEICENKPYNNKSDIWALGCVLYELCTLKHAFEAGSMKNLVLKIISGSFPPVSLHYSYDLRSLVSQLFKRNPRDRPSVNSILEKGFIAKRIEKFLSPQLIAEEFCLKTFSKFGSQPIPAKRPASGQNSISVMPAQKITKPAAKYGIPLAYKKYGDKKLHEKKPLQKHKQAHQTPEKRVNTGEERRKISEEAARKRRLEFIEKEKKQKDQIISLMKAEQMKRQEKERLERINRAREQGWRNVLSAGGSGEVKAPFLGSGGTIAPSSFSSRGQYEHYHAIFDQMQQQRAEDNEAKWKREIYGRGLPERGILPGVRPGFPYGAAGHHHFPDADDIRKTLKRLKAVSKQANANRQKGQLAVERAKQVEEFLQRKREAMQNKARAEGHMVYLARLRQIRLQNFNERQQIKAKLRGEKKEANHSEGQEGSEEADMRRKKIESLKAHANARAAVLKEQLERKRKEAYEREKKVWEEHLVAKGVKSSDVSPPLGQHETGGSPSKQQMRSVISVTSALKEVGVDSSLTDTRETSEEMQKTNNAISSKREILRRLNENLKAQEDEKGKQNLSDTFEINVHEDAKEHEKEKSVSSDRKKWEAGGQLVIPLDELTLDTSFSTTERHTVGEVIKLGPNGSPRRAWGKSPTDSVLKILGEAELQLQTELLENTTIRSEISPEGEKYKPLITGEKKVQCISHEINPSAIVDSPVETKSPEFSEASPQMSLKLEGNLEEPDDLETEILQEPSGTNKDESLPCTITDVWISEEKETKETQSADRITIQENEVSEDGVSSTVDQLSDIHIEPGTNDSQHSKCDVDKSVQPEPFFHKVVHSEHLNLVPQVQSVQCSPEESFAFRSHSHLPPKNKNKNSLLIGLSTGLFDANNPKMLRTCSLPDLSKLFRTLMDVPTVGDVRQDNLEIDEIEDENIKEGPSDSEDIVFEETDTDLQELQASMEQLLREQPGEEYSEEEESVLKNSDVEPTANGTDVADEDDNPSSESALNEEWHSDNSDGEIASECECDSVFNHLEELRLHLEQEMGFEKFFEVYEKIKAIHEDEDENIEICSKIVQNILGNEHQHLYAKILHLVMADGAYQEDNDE
Method: as §1

[4] = molecular target: T4, SYK (Homo sapiens, UniProt P43405); settings: 10 µM compound, ATP Km app
T4 construct: purchased ThermoFisher (SelectScreen, Z'-LYTE)
Method: as §1

[5] = molecular target: T5, STK22B (TSSK2) (Homo sapiens, UniProt Q96PF2)
T5 construct: purchased ThermoFisher (SelectScreen, Z'-LYTE)
T5 sequence (Q96PF2 1-358): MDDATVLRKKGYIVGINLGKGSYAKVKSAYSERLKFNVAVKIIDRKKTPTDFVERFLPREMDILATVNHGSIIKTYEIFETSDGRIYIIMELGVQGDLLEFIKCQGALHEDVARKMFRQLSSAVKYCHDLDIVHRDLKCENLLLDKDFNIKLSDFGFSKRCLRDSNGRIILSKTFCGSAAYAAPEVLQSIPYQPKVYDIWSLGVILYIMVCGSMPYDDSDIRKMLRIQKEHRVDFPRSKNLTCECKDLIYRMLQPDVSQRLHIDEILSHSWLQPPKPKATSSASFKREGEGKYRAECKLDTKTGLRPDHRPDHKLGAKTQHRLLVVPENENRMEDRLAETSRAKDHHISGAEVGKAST
Method: as §1

[6] = molecular target: T6, STK24 (MST3) (Homo sapiens, UniProt Q9Y6E0)
T6 construct: purchased ThermoFisher (SelectScreen, Z'-LYTE)
T6 sequence (Q9Y6E0 whole entry): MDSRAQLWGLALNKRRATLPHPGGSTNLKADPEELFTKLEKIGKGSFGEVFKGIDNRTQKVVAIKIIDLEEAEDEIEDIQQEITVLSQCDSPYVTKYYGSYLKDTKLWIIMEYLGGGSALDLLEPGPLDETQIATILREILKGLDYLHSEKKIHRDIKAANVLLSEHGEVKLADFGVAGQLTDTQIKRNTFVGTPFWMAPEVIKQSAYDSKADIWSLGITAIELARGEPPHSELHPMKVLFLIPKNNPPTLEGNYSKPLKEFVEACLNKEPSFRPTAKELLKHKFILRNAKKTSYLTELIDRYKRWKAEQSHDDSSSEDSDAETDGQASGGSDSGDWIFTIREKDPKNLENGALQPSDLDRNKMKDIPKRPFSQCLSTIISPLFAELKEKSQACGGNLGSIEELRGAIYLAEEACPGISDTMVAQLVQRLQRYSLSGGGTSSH
Method: as §1

| Molecule | inhibition at 10 µM [1] | inhibition at 10 µM [2] | inhibition at 10 µM [3] | inhibition at 10 µM [4] | SYK % Inhibition ([4]; listed as SN1109056190, 10 µM) | inhibition at 10 µM [5] | inhibition at 10 µM [6] | JAK3 % Inhibition ([1]; 10 µM compound, ATP Km app) | PDGFRA (PDGFR alpha) % Inhibition ([2]; 10 µM compound, ATP Km app) | NEK1 % Inhibition ([3]; 10 µM compound, ATP Km app) | SYK % Inhibition [4] | STK22B (TSSK2) % Inhibition ([5]; 10 µM compound, ATP Km app) | STK24 (MST3) % Inhibition ([6]; 10 µM compound, ATP Km app) |
| --- | --- | --- | --- | --- | --- | --- | --- | --- | --- | --- | --- | --- | --- |
| Cc1cc(Nc2nc(N)nn2C(=O)NC(C)C)ccc1Cl [Compound 5] | 45% | 22% | 21% | > 80% | 85% | -10% | 27% | – | – | – | – | – | – |
| Cc1ncc(-c2nc(Nc3ccc(C(=O)NCCN4CCCCC4)cc3)ncc2F)n1C(C)C [Compound 3] | 88% | 62% | 6.39% | 90% | – | -7% | 89% | – | – | – | – | – | – |
| XMD8-92 [Compound 2, reference compound] | – | – | – | – | – | – | – | 80% | 8% | -9% | 22% | -0.837% | 30% |
